Patent US10561666B2, “Amido compounds as RORγt modulators and uses thereof” (New York University, priority 2010, dated 2020)

Target: RORγt (Mus musculus, UniProt P51450, T352K)
Experiment: RORγt S2 cell Gal4-luciferase reporter assay
Conditions: for Emax: read-out: Efficacy (%)
[1] = IC50(μM), Drosophila S2 cells, Gal4-RORγt luciferase reporter, 20 hr
[2] = S2 cell RORg IC50 μM, S2 cell reporter assay, listed for comparison

RORγt, sequence (P51450 with tags, fused parts or gaps T352K): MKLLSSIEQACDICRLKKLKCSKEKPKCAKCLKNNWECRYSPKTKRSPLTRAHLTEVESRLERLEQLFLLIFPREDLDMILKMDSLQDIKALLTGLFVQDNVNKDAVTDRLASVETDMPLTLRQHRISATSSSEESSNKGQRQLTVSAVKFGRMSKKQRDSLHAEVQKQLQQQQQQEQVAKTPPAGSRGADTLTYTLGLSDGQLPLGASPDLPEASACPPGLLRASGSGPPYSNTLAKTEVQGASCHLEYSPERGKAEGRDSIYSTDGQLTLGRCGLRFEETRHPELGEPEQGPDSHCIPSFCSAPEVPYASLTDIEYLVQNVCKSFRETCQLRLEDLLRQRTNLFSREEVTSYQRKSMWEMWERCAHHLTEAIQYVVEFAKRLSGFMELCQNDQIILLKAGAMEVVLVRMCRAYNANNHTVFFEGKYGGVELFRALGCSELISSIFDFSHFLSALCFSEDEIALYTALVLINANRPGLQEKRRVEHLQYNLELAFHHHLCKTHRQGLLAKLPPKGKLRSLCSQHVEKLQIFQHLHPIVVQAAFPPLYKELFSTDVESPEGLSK
Description: Methods: The Drosophila S2 cell line was originally purchased from Invitrogen and was maintained in Schneider's medium supplemented with 10% heat-inactivated bovine fetal calf serum and antibiotics (Invitrogen). […] The resulting chimeric gene was subcloned into the copper inducible pMT/V5-His A vector (available from Invitrogen).
In order to generate stable cell lines, cells were co-transfected with pMT-G4DBD-RORγt, pMT-G4DBD-RORα, pMT-G4DBD-DHR3, or pMT-G4DBDVP16 and pHygro plasmids (Invitrogen) and screened for resistant colonies in the presence of hygromycin (0.3 mg/mL).
Methods: 600 G4DBD-RORγ/γt-luc reporter (#25) or G4DBD-VP16-luc reporter cells were distributed into each well of 1,536-well white bottom plates in 4 μl S2 cell culture volume containing hygromicin (300 μg/ml) and puromycin (2 μg/ml). […] After one-hour incubation, 1 μl of culture medium solution containing copper sulfate (to final 0.7 mM) and 10 μM RORγ/γt antagonists were added to each well. After 20-hour incubation at ambient temperature, 1.5 μl firefly luciferase detection mix was added and the luciferase activities were measured in 10 min. ViewLux luminometers were used for measuring luciferase signal.
Since their cognate DNA binding sites were not well characterized, the DNA binding domains (DBD) of RORγ/γt, RORα (mouse homolog for POPγ), and DHR3 (Drosophila orthologue for ROR family proteins) were replaced with the heterologous yeast GAL4 DBD. The transcriptionally active domain of general transcriptional activator VP16 was also fused with GAL4 DBD. The GAL4 fusion constructs were placed under the control of a copper inducible promoter, and stable S2 cell lines with genomic integration of these four reporter constructs were generated. The copper inducible promoter ensures tight regulation of GAL4-fusion protein expression and it allows small molecules to get into the cells prior to protein induction, thus increasing their effects on GAL4 reporters. The stable reporter cell lines also encode the firefly luciferase reporter, whose expression is regulated by five copies of the GAL4 binding site enhancer (UAS), along with the pol III-driven Renilla luciferase reporter.
A cell-based reporter assay was used to detect RORγt-mediated activity. This assay, called RORγt□ employed Drosophila Schneider cells that were stably transfected with two vectors: a gene expressing a fusion of the Gal4 DNA binding domain and RORγt transactivation domain under the control of the metallothionine promoter and a Photinus luciferase reporter regulated by the Gal4 binding site enhancer, UAS. […] Cells (600/well) were dispensed into white solid 1536-well plates (Greiner) using a solenoid-based dispenser. Following transfer of 23 nL compound or DMSO vehicle by a pin tool, the plates were incubated 1 hr at ambient temperature, and 1 uL/well copper sulfate (700 uM final concentration) was added. The plates were centrifuged 15 s at 1000 RPM and incubated 20 hr at ambient temperature. After addition of 1.5 uL Photinus luciferase detection reagent, the plates were incubated 10 min at ambient temperature and then read by a ViewLux (Perkin Elmer) to detect luminescence. […] Efficacy is expressed as % of the maximal response of control inhibitor (Digoxin), set at 100%.

| SMILES | IC50 [1] [µM] | IC50 [2] [µM] | Emax [%] | IC50 (Drosophila S2 cells, Gal4-RORγt luciferase reporter, 20 hr) [µM] |
| --- | --- | --- | --- | --- |
| COc1cc(O)c(C(CC(=O)N2CCCC(C)C2)c2ccc(-c3ccccc3)cc2)c(OC)c1 (stereo not shown) [Compound 67] | 11 to 50 | 11 to 20 | 72 |  |
| CC1CCCN(C(=O)CC(c2ccc3c(c2)OCO3)c2ccc3ccccc3c2O)C1 (stereo not shown) [Compound 68] | > 50 |  |  |  |
| COc1cc(O)c(CCC(=O)N2CCCC(C)C2)c(OC)c1 (stereo not shown) [Compound 71] | > 50 |  |  |  |
| COc1cc(O)c(C(CC(=O)N2CC(C)CC(C)C2)c2ccc(Cl)c(Cl)c2)c(OC)c1 (stereo not shown) [Compound 88, 3-(3,4-Dichlorophenyl)-1-(3,5-dimethylpiperidin-1-yl)-3-(2-hydroxy-4,6-dimethoxyphenyl)propan-1-one] | 1 to 10 |  | 97.2 |  |
| COc1cc(O)c(C(CC(=O)N2CC(C)CC(C)C2)c2ccc(C(C)(C)C)cc2)c(OC)c1 (stereo not shown) [Compound 89, 3-(4-tert-Butylphenyl)-1-(3,5-dimethylpiperidin-1-yl)-3-(2-hydroxy-4,6-dimethoxyphenyl)propan-1-one] | 1 to 10 |  | 95.4 |  |
| COc1cc(O)c(C(CC(=O)N2CC(C)CC(C)C2)c2cccc(OCc3ccccc3)c2)c(OC)c1 (stereo not shown) [Compound 91] | 1 to 10 |  | 92.6 |  |
| COc1cc(O)c(C(CC(=O)N2CC(C)CC(C)C2)c2cccc(OC(F)(F)F)c2)c(OC)c1 (stereo not shown) [Compound 93, 1-(3,5-Dimethylpiperidin-1-yl)-3-(2-hydroxy-4,6-dimethoxyphenyl)-3-(3-(trifluoromethoxy)phenyl)propan-1-one] | 1 to 10 |  | 93.3 |  |
| COc1cc(O)c(C(CC(=O)N2CC(C)CC(C)C2)c2ccc(C(=O)NC3CC3)cc2)c(OC)c1 (stereo not shown) [Compound 95] | 1 to 10 |  | 93.1 |  |
| COc1cc(O)c(C(CC(=O)N2CC(C)CC(C)C2)c2ccc(OC(F)(F)F)cc2)c(OC)c1 (stereo not shown) [Compound 96, 1-(3,5-Dimethylpiperidin-1-yl)-3-(2-hydroxy-4,6-dimethoxyphenyl)-3-(4-(trifluoromethoxy)phenyl)propan-1-one] | 1 to 10 |  | 94.8 |  |
| COc1cc(O)c(C(CC(=O)N2CC(C)CC(C)C2)c2cc(Cl)cc(Cl)c2)c(OC)c1 (stereo not shown) [Compound 97] | 11 to 50 |  | 61.5 |  |
| COc1cc(O)c(C(CC(=O)N2CC(C)CC(C)C2)c2ccc(C(=O)O)cc2)c(OC)c1 (stereo not shown) [Compound 99] | 1 to 10 |  | 92.6 |  |
| COc1cc(O)c(C(CC(=O)N2CC(C)CC(C)C2)c2ccccc2Cl)c(OC)c1 (stereo not shown) [Compound 103] | 1 to 10 |  | 95.8 |  |
| COc1cc(O)c(C(CC(=O)N2CC(C)CC(C)C2)c2ccc3c(c2)OC(F)(F)O3)c(OC)c1 (stereo not shown) [Compound 104] | 1 to 10 |  | 97.3 |  |
| CCc1ccc(O)c(C(CC(=O)N2CCCC(C)C2)c2ccc3c(c2)OCO3)c1 (stereo not shown) [Compound 112] | 11 to 50 |  | 106 |  |
| Cc1ccc(C)c(C(CC(=O)N2CCCC(C)C2)c2ccc3c(c2)OCO3)c1O (stereo not shown) [Compound 113] | 11 to 50 |  | 81.5 |  |
| Cc1cc(C)c(O)c(C(CC(=O)N2CCCC(C)C2)c2ccc3c(c2)OCO3)c1 (stereo not shown) [Compound 116] | 11 to 50 |  | 48.2 |  |
| COc1cc(OC)c(C(CC(=O)N2CCCC(C)C2)c2ccc3c(c2)OCO3)c(OCc2ccccc2)c1 (stereo not shown) [Compound 124] | 1 to 10 | 1 to 10 | 94.1 |  |
| COc1cc2ccccc2c(O)c1C(CC(=O)N1CCCC(C)C1)c1ccc2c(c1)OCO2 (stereo not shown) [Compound 128] | 11 to 50 |  | 80 |  |
| COc1ccc(C)c(O)c1C(CC(=O)N1CCCC(C)C1)c1ccc2c(c1)OCO2 (stereo not shown) [Compound 130] | 11 to 50 |  | 77.5 |  |
| CC1CCCN(C(=O)CC(c2ccc3c(c2)OCO3)c2ccc(I)cc2O)C1 (stereo not shown) [Compound 131] | 11 to 50 |  | 33.2 |  |
| CC(=O)Nc1ccc(C(CC(=O)N2CC(C)CC(C)C2)c2ccc3c(c2)OCO3)c(O)c1 (stereo not shown) [Compound 133] | 1 to 10 |  | 103 |  |
| CC1CC(C)CN(C(=O)CC(c2ccc(-n3cncn3)cc2)c2ccc3c(c2)OCO3)C1 (stereo not shown) [Compound 141, 3-(4-(1H-1,2,4-Triazol-1-yl)phenyl)-3-(benzo[d][1,3]dioxol-5-yl)-1-(3,5-dimethylpiperidin-1-yl)propan-1-one] | 11 to 50 |  | 106 |  |

The next lines start with the values.

| IC50 [1] [µM] | IC50 [2] [µM] | Emax [%] | IC50 (Drosophila S2 cells, Gal4-RORγt luciferase reporter, 20 hr) [µM] | SMILES |
| --- | --- | --- | --- | --- |
| < 1 |  | 94 |  | COc1cc(O)c(C(CC(=O)N2CC(C)CC(C)C2)c2ccc3c(c2)OCCCO3)c(OC)c1 (stereo not shown) [Compound 80] |
| 11 to 50 |  |  |  | COc1cc(O)c(C(CC(=O)N2CC(C)CC(C)C2)c2ccc(S(=O)(=O)N(C)C)cc2)c(OC)c1 (stereo not shown) [Compound 84, 4-(3-(3,5-Dimethylpiperidin-1-yl)-1-(2-hydroxy-4,6-dimethoxyphenyl)-3-oxopropyl)-N,N-dimethylbenzenesulfonamide] |
| 1 to 10 |  | 103 |  | COc1cc(O)c(C(CC(=O)N2CC(C)CC(C)C2)c2cccc(Br)c2)c(OC)c1 (stereo not shown) [Compound 85, 3-(3-Bromophenyl)-1-(3,5-dimethylpiperidin-1-yl)-3-(2-hydroxy-4,6-dimethoxyphenyl)propan-1-one] |
| < 1 |  | 96.6 |  | COc1cc(O)c(C(CC(=O)N2CC(C)CC(C)C2)c2cccc(C#N)c2)c(OC)c1 (stereo not shown) [Compound 87, 3-(3-(3,5-Dimethylpiperidin-1-yl)-1-(2-hydroxy-4,6-dimethoxyphenyl)-3-oxopropyl)benzonitrile] |
| 1 to 10 |  | 99.1 |  | COc1cc(O)c(C(CC(=O)N2CC(C)CC(C)C2)c2ccc(CN3CCOCC3)cc2)c(OC)c1 (stereo not shown) [Compound 90] |
| 1 to 10 |  | 94.6 |  | COc1cc(O)c(C(CC(=O)N2CC(C)CC(C)C2)c2ccc(OCc3ccccc3)cc2)c(OC)c1 (stereo not shown) [Compound 92] |
| 1 to 10 |  | 90.5 |  | COc1cc(O)c(C(CC(=O)N2CC(C)CC(C)C2)c2cccc(OC(C)C)c2)c(OC)c1 (stereo not shown) [Compound 94, 1-(3,5-Dimethylpiperidin-1-yl)-3-(2-hydroxy-4,6-dimethoxyphenyl)-3-(3-isopropoxyphenyl)propan-1-one] |
| < 1 |  |  |  | COc1cc(O)c(C(CC(=O)N2CC(C)CC(C)C2)c2ccc(C(C)=O)cc2)c(OC)c1 (stereo not shown) [Compound 100, 3-(4-Acetylphenyl)-1-(3,5-dimethylpiperidin-1-yl)-3-(2-hydroxy-4,6-dimethoxyphenyl)propan-1-one] |
| 1 to 10 |  |  |  | COc1cc(O)c(C(CC(=O)N2CC(C)CC(C)C2)c2cccc(C(=O)O)c2)c(OC)c1 (stereo not shown) [Compound 101, 3-(3-(3,5-Dimethylpiperidin-1-yl)-1-(2-hydroxy-4,6-dimethoxyphenyl)-3-oxopropyl)benzoic acid] |
| 1 to 10 |  | 99.9 |  | COc1cc(O)c(C(CC(=O)N2CC(C)CC(C)C2)c2cccc(F)c2)c(OC)c1 (stereo not shown) [Compound 102] |
| < 1 |  | 94.7 |  | COc1cc(O)c(C(CC(=O)N2CC(C)CC(C)C2)c2ccc(SC)cc2)c(OC)c1 (stereo not shown) [Compound 105, 1-(3,5-Dimethylpiperidin-1-yl)-3-(2-hydroxy-4,6-dimethoxyphenyl)-3-(4-(methylthio)phenyl)propan-1-one] |
| 1 to 10 |  | 97.3 |  | COc1cc(O)c(C(CC(=O)N2CC(C)CC(C)C2)c2cc(F)c(F)c(F)c2)c(OC)c1 (stereo not shown) [Compound 109, 1-(3,5-Dimethylpiperidin-1-yl)-3-(2-hydroxy-4,6-dimethoxyphenyl)-3-(3,4,5-trifluorophenyl)propan-1-one] |
|  |  |  | 1 to 10 | COc1cc(O)c(C(CC(=O)N2CC(C)CC(C)C2)c2ccc(OCc3ccccc3)cc2)c(OC)c1 (stereo not shown) [Compound 110] |
| 1 to 10 |  |  |  | COc1cc(O)c(C(CC(=O)N2CC(C)CC(C)C2)c2ccc(C(N)=O)cc2)c(OC)c1 (stereo not shown) [Compound 111] |
| 11 to 50 |  | 87.3 |  | CC1CCCN(C(=O)CC(c2ccc3c(c2)OCO3)c2cc(C(C)C)ccc2O)C1 (stereo not shown) [Compound 114] |
| 1 to 10 | 1 to 10 | 94.9 |  | CC1CCCN(C(=O)CC(c2ccc3c(c2)OCO3)c2c(O)ccc3ccccc23)C1 (stereo not shown) [Compound 118] |
| 11 to 50 | 11 to 20 | 94.3 |  | CCOc1ccc(O)c(C(CC(=O)N2CCCC(C)C2)c2ccc3c(c2)OCO3)c1 (stereo not shown) [Compound 119] |
| > 50 |  |  |  | CC1CCCN(C(=O)CC(c2ccc3c(c2)OCO3)c2ccc(O)cc2O)C1 (stereo not shown) [Compound 122] |
| 1 to 10 |  | 98 |  | C#CCOc1cc(OC)cc(OC)c1C(CC(=O)N1CCCC(C)C1)c1ccc2c(c1)OCO2 (stereo not shown) [Compound 123] |
| 11 to 50 |  | 51.6 |  | Cc1ccc(C(CC(=O)N2CCCC(C)C2)c2ccc3c(c2)OCO3)c(O)c1 (stereo not shown) [Compound 125] |
| 11 to 50 |  | 43.5 |  | Cc1cccc(O)c1C(CC(=O)N1CCCC(C)C1)c1ccc2c(c1)OCO2 (stereo not shown) [Compound 126] |
| 11 to 50 |  | 27.1 |  | CC1CCCN(C(=O)CC(c2ccc3c(c2)OCO3)c2c(O)cccc2Cl)C1 (stereo not shown) [Compound 127] |
| 11 to 50 |  | 76.9 |  | COc1cc(O)c(C(CC(=O)N2CCCC(C)C2)c2ccc3c(c2)OCO3)c2ccccc12 (stereo not shown) [Compound 129] |
| 1 to 10 |  | 30.4 |  | CC1CCCN(C(=O)CC(c2ccc3c(c2)OCO3)c2ccc(F)cc2O)C1 (stereo not shown) [Compound 132] |
| < 1 |  | 94.5 |  | COc1c(C(CC(=O)N2CC(C)CC(C)C2)c2ccc3c(c2)OCO3)c(O)cc2occc12 (stereo not shown) [Compound 139] |
| < 1 |  | 96.5 |  | COc1cccc(O)c1C(CC(=O)N1CC(C)CC(C)C1)c1ccc2c(c1)OCO2 (stereo not shown) [Compound 140, 3-(Benzo[d][1,3]dioxol-5-yl)-1-(3,5-dimethylpiperidin-1-yl)-3-(2-hydroxy-6-methoxyphenyl)propan-1-one] |
| 11 to 50 |  | 86.4 |  | CC1CC(C)CN(C(=O)CC(c2ccc3c(c2)OCO3)c2cccc(F)c2O)C1 (stereo not shown) [Compound 143] |
| 11 to 50 |  | 97.3 |  | CC1CC(C)CN(C(=O)CC(c2ccc3c(c2)OCO3)c2ccc(F)cc2O)C1 (stereo not shown) [Compound 144] |
| 1 to 10 |  | 79.7 |  | CC1CC(C)CN(C(=O)CC(c2ccc3c(c2)OCO3)c2cc(F)ccc2O)C1 (stereo not shown) [Compound 145] |
| 1 to 10 |  | 94.1 |  | CC1CC(C)CN(C(=O)CC(c2ccc3c(c2)OCO3)c2c(O)ccc3cccnc23)C1 (stereo not shown) [Compound 146] |
